Bounds are passed on as bounds.

This assay addresses T1, IRAK-4 (Homo sapiens, UniProt Q9NWZ3).
T1 sequence (Q9NWZ3 1-460): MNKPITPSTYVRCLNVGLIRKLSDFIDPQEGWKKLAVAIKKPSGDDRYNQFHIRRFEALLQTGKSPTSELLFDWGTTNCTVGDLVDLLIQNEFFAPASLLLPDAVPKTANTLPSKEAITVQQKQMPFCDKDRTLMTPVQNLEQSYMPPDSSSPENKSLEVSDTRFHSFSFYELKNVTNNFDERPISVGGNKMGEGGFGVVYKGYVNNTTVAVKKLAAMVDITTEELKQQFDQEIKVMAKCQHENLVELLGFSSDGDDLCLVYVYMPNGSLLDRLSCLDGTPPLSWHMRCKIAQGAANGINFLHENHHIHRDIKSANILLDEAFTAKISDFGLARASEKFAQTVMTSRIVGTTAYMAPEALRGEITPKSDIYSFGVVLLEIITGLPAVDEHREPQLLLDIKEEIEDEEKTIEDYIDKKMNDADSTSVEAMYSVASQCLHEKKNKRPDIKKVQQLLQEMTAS
Description: IRAK-4 ELISA, PBMC degradation. The format is cell-based. Details: endogenous in cells; host or cells: PBMC. The note with it: treated overnight. On the procedure:
Reagents: Human IRAK-4 Matched Antibody Pair Kit (Abcam ab218182) and ELISA Accessory Pack (Abcam ab210905).
Cell Treatment and Lysis:
1. OCI-Ly10: 200,000 cells are seeded at 1×10^6/ml in 96-well U-bottom plates 200 ul per well, treated with compound the same day. Incubate overnight. 2. PBMC: 800,000 cells are seeded at 2×10^6/ml in 96-well U-bottom deep-well plates, 400 ul per well, treated with compound the same day. Incubate overnight.
Cell lysate is collected and analyzed by ELISA for IRAK-4 levels.
(In general: In an ELISA, binding on a coated surface is turned into a signal by an enzyme label.)

Usually DC50 stands for the concentration giving 50% degradation. A low value points to a more potent degrader. By Dmax is commonly meant the greatest extent of degradation seen. Lower therefore signals shallow degradation. As for `CC(C)Oc1cc2c(cc1NC(=O)c1cnn3cccnc13)CN(C1CCN(CCN(C)c3ccc4c(c3)C(=O)N(C3CCC(=O)NC3=O)C4=O)CC1)C2=O` (stereo not drawn) [Example 75], the DC50 was 1 to 5 nM; the Dmax is at least 90%; the “PBMC DC90” value was “B (B represents a DC90 value ≥10.0 nM and <25.0 nM)”.

On to `CC(C)Oc1cc2c(cc1NC(=O)c1cnn3cccnc13)CN(C1CCN(C[C@H]3CCCN(c4ccc5c(c4)C(=O)N(C4CCC(=O)NC4=O)C5=O)C3)CC1)C2=O` (stereo partly drawn) [Example 76], for which the half-maximal degradation concentration (DC50) was in the range of 1 to 5 nM; the greatest degradation seen (Dmax) is at least 90%; the “PBMC DC90” value was “B (B represents a DC90 value ≥10.0 nM and <25.0 nM)”.

On to `CC(C)Oc1cc2c(cc1NC(=O)c1cnn3cccnc13)CN(C1CCN(C[C@@H]3CCCN(c4ccc5c(c4)C(=O)N(C4CCC(=O)NC4=O)C5=O)C3)CC1)C2=O` (stereo partly drawn) [Example 77], for which the DC50 is 1 to 5 nM; the Dmax was at least 90%; the “PBMC DC90” value is “B (B represents a DC90 value ≥10.0 nM and <25.0 nM)”.

As to `CC(C)Oc1cc2c(cc1NC(=O)c1cnn3cccnc13)CN(C1CCN(C[C@@H]3CN(c4ccc5c(c4)C(=O)N(C4CCC(=O)NC4=O)C5=O)CCO3)CC1)C2=O` (stereo partly drawn) [Example 78], the half-maximal degradation concentration (DC50) is below 1 nM, the greatest degradation seen (Dmax) is at least 90% and the “PBMC DC90” value is listed as “A (A represents a DC90 value <10.0 nM)”.

Turning to `CC(C)Oc1cc2c(cc1NC(=O)c1cnn3cccnc13)CN(C1CCN(C[C@H]3CN(c4ccc5c(c4)C(=O)N(C4CCC(=O)NC4=O)C5=O)CCO3)CC1)C2=O` (stereo partly drawn) [Example 79], the DC50 is below 1 nM, the greatest degradation seen (Dmax) was at least 90% and the “PBMC DC90” value was “A (A represents a DC90 value <10.0 nM)”.

Take `CC(C)Oc1cc2c(cc1NC(=O)c1cnn3cccnc13)CN(C1CCN(C[C@@H]3CCN(c4ccc5c(c4)C(=O)N(C4CCC(=O)NC4=O)C5=O)C3)CC1)C2=O` (stereo partly drawn) [Example 80]: the DC50 lay in the range of 1 to 5 nM, the maximal degradation (Dmax) is at least 90% and the “PBMC DC90” value is listed as “A (A represents a DC90 value <10.0 nM)”.

As for `CC(C)Oc1cc2c(cc1NC(=O)c1cnn3cccnc13)CN(C1CCN(CC3CCC4(CC3)CN(c3ccc5c(c3)C(=O)N(C3CCC(=O)NC3=O)C5=O)C4)CC1)C2=O` (stereo not drawn) [Example 81], the half-maximal degradation concentration (DC50) was below 1 nM, the Dmax was at least 90% and the “PBMC DC90” value was “A (A represents a DC90 value <10.0 nM)”.

Regarding `CC(C)Oc1cc2c(cc1NC(=O)c1cnn3cccnc13)CN(C1CCN(C[C@H]3CCN(c4ccc5c(c4)C(=O)N(C4CCC(=O)NC4=O)C5=O)C3)CC1)C2=O` (stereo partly drawn) [Example 83], the 50% degradation concentration (DC50) lay in the range of 1 to 5 nM, the Dmax was at least 90% and the “PBMC DC90” value is “A (A represents a DC90 value <10.0 nM)”.

In the case of `O=C1CCC(N2C(=O)c3ccc(N4CC(CN5CCC(N6Cc7cc(NC(=O)c8cnn9cccnc89)c(OC8CC8)cc7C6=O)CC5)C4)cc3C2=O)C(=O)N1` (stereo not drawn) [Example 84], the DC50 was below 1 nM, the Dmax was at least 90% and the “PBMC DC90” value is “A (A represents a DC90 value <10.0 nM)”.

In the case of `O=C1CCC(N2C(=O)c3ccc(N4CC(F)(CN5CCC(N6Cc7cc(NC(=O)c8cnn9cccnc89)c(OC8CC8)cc7C6=O)CC5)C4)cc3C2=O)C(=O)N1` (stereo not drawn) [Example 85], the DC50 is 1 to 5 nM; the Dmax is 80 to 90%; the “PBMC DC90” value was “C (C represents a DC90 value ≥25.0 nM and <50 nM)”.

Regarding `O=C1CCC(N2C(=O)c3ccc(N4CC(F)(CN5CCC(N6Cc7cc(NC(=O)c8cnn9cccnc89)c(OCC8CC8)cc7C6=O)CC5)C4)cc3C2=O)C(=O)N1` (stereo not drawn) [Example 89], the half-maximal degradation concentration (DC50) lay in the range of 1 to 5 nM; the Dmax fell in the range of 80 to 90%; the “PBMC DC90” value is “B (B represents a DC90 value ≥10.0 nM and <25.0 nM)”.

In the case of `CC(C)Oc1cc2c(cc1NC(=O)c1cnn3cccnc13)CN(CCOCC1CCN(c3ccc4c(c3)C(=O)N(C3CCC(=O)NC3=O)C4=O)CC1)C2=O` (stereo not drawn) [Example 90], the DC50 was below 1 nM, the Dmax was at least 90% and the “PBMC DC90” value is on record as “A (A represents a DC90 value <10.0 nM)”.

As for `O=C1CCC(N2C(=O)c3ccc(N4CCN(CCOC[C@H](F)CN5Cc6cc(NC(=O)c7cnn8cccnc78)c(N7CCOCC7)cc6C5=O)CC4)cc3C2=O)C(=O)N1` (stereo partly drawn) [Example 92], the DC50 lay within 1 to 5 nM; the greatest degradation seen (Dmax) was at least 90%; the “PBMC DC90” value was “B (B represents a DC90 value ≥10.0 nM and <25.0 nM)”.

In the case of `O=C1CCC(N2C(=O)c3ccc(N4CCC(COCCN5Cc6cc(NC(=O)c7cnn8cccnc78)c(N7CCOCC7)cc6C5=O)CC4)cc3C2=O)C(=O)N1` (stereo not drawn) [Example 95], the 50% degradation concentration (DC50) is below 1 nM, the Dmax was at least 90% and the “PBMC DC90” value was “A (A represents a DC90 value <10.0 nM)”.

In the case of `O=C1CCC(N2C(=O)c3ccc(N4CC(F)(CN5CCC(N6Cc7cc(NC(=O)c8cnn9cccnc89)c(C8CC8)cc7C6=O)CC5)C4)cc3C2=O)C(=O)N1` (stereo not drawn) [Example 100], the DC50 fell in the range of 1 to 5 nM; the greatest degradation seen (Dmax) is at least 90%; the “PBMC DC90” value was “B (B represents a DC90 value ≥10.0 nM and <25.0 nM)”.

As to `O=C1CCC(N2C(=O)c3ccc(N4CC(F)(CN5CCC(N6Cc7cc(NC(=O)c8cnn9cccnc89)c(N8CCOCC8)cc7C6=O)CC5)C4)cc3C2=O)C(=O)N1` (stereo not drawn) [Example 101], the DC50 lay in the range of 1 to 5 nM; the maximal degradation (Dmax) was 70 to 80%; the “PBMC DC90” value is “B (B represents a DC90 value ≥10.0 nM and <25.0 nM)”.

Take `O=C1CCC(N2C(=O)c3ccc(N4CC(F)(CN5CCC(N6Cc7cc(NC(=O)c8cnn9cccnc89)c(OCC(F)F)cc7C6=O)CC5)C4)cc3C2=O)C(=O)N1` (stereo not drawn) [Example 102]: the half-maximal degradation concentration (DC50) fell in the range of 1 to 5 nM; the Dmax lay in the range of 70 to 80%; the “PBMC DC90” value is “C (C represents a DC90 value ≥25.0 nM and <50 nM)”.

`O=C1CCC(N2C(=O)c3ccc(N4CC(CN5CCC(N6Cc7cc(NC(=O)c8cnn9cccnc89)c(OCC(F)F)cc7C6=O)CC5)C4)cc3C2=O)C(=O)N1` (stereo not drawn) [Example 103]: the half-maximal degradation concentration (DC50) was below 1 nM, the Dmax lay within 80 to 90% and the “PBMC DC90” value is given as “A (A represents a DC90 value <10.0 nM)”.

With `O=C1CCC(N2Cc3cc(N4CC(F)(CN5CCC(N6Cc7cc(NC(=O)c8cnn9cccnc89)c(OCC8CC8)cc7C6=O)CC5)C4)ccc3C2=O)C(=O)N1` (stereo not drawn) [Example 104], the half-maximal degradation concentration (DC50) is below 1 nM, the Dmax is 70 to 80% and the “PBMC DC90” value is on record as “A (A represents a DC90 value <10.0 nM)”.

For `COc1cc(N2CC(CN3CCC(n4cc5cc(NC(=O)c6cnn7cccnc67)c(OCC6CC6)cc5n4)CC3)C2)cc2c1C(=O)N(C1CCC(=O)NC1=O)C2` (stereo not drawn) [Example 124], the 50% degradation concentration (DC50) is below 1 nM, the maximal degradation (Dmax) was at least 90% and the “PBMC DC90” value is on record as “A (A represents a DC90 value <10.0 nM)”.

Consider `COc1cc(N2CC(CN3CCC(n4cc5cc(NC(=O)c6cnn7cccnc67)c(OCC6CC6)cc5n4)CC3)C2)cc2c1C(=O)N(C1CCC(=O)NC1=O)C2=O` (stereo not drawn) [Example 131], for which the 50% degradation concentration (DC50) was below 1 nM, the maximal degradation (Dmax) was at least 90% and the “PBMC DC90” value is listed as “A (A represents a DC90 value <10.0 nM)”.

Turning to `COc1cc(N2CCC(CN3CCC(n4cc5cc(NC(=O)c6cnn7cccnc67)c(OCC6CC6)cc5n4)CC3)CC2)cc2c1C(=O)N(C1CCC(=O)NC1=O)C2` (stereo not drawn) [Example 132], the DC50 was below 1 nM, the Dmax is at least 90% and the “PBMC DC90” value was “A (A represents a DC90 value <10.0 nM)”.

On to `COc1cc(N2CCC(CN3CCC(n4cc5cc(NC(=O)c6cnn7cccnc67)c(OCC6CC6)cc5n4)CC3)CC2)cc2c1C(=O)N(C1CCC(=O)NC1=O)C2=O` (stereo not drawn) [Example 133], for which the DC50 was below 1 nM, the Dmax was at least 90% and the “PBMC DC90” value is reported as “A (A represents a DC90 value <10.0 nM)”.

`CC(C)Oc1cc2nn(C3CCN(CCN4CCN(c5ccc6c(c5)C(=O)N(C5CCC(=O)NC5=O)C6=O)CC4)CC3)cc2cc1NC(=O)c1cnn2cccnc12` (stereo not drawn) [Example 137]: the half-maximal degradation concentration (DC50) is below 1 nM, the Dmax is at least 90% and the “PBMC DC90” value was “A (A represents a DC90 value <10.0 nM)”.

On to `CC(C)Oc1cc2nn(C3CCN(CC4CCN(c5ccc6c(c5)C(=O)N(C5CCC(=O)NC5=O)C6=O)CC4)CC3)cc2cc1NC(=O)c1cnn2cccnc12` (stereo not drawn) [Example 138], for which the DC50 is below 1 nM, the Dmax is at least 90% and the “PBMC DC90” value is given as “A (A represents a DC90 value <10.0 nM)”.

In the case of `CC(C)Oc1cc2nn(C3CCN(CCC4(F)CN(c5ccc6c(c5)C(=O)N(C5CCC(=O)NC5=O)C6=O)C4)CC3)cc2cc1NC(=O)c1cnn2cccnc12` (stereo not drawn) [Example 139], the DC50 is below 1 nM, the Dmax lay in the range of 80 to 90% and the “PBMC DC90” value is reported as “A (A represents a DC90 value <10.0 nM)”.

Consider `CC(C)Oc1cc2nn(C3CCN(CC(F)(F)C4CN(c5ccc6c(c5)C(=O)N(C5CCC(=O)NC5=O)C6=O)C4)CC3)cc2cc1NC(=O)c1cnn2cccnc12` (stereo not drawn) [Example 147], for which the DC50 was in the range of 1 to 5 nM; the Dmax is at least 90%; the “PBMC DC90” value was “B (B represents a DC90 value ≥10.0 nM and <25.0 nM)”.

Turning to `O=C1CCC(N2C(=O)c3ccc(N4CCC(CN5CCC(n6cc7cc(NC(=O)c8cnn9cccnc89)c(OCC(F)F)cc7n6)CC5)CC4)cc3C2=O)C(=O)N1` (stereo not drawn) [Example 148], the DC50 is below 1 nM, the greatest degradation seen (Dmax) is 80 to 90% and the “PBMC DC90” value is on record as “A (A represents a DC90 value <10.0 nM)”.
